Counter-ions that a name gives are not always drawn.
Legend:
Streptococcus pneumoniae = assay: In vitro antibacterial (ABMF) microdilution test, Streptococcus pneumoniae; format: cell-based; conditions: Mueller-Hinton broth, 37° C., 16-24 hours, read-out: ABMF minimal inhibitory conc, S. pneu.
Text: (§1) Still another test protocol is the in vitro antibacterial (ABMF) test which is a recognized standard microdilution susceptibility procedure in Mueller-Hinton broth against Gram-positive and Gram-negative bacterial test organisms. The procedure is a modification of a state-of-the-art procedure reported in Manual of Clinical Microbiology, Lennette, E. H., ed., by Barry, A. L. and C. Thornsberry at pages 463-474 and by Gavan, T. L. and A. L. Barry at pages 459-462, American Society for Microbiology, Washington, 1980.
(§2) In the test, a given bacterial culture is used to inoculate individual test wells of microdilution trays containing growth medium and test compound, the latter in a microdilution series: 1000, 333, 111, 37, 12, 4, 1.4, and 0.46 micrograms per milliliter. […] For convenience, values are reported for Escherichia coli, Corynebacterium Sp. ATCC 21698, Branhamella catarrhalis, Streptococcus pneumoniae, and Bacillus cereus.

[1] = tested on: Corynebacterium Sp. ATCC 21698; assay: In vitro antibacterial (ABMF) microdilution test, Corynebacterium Sp.; format: cell-based; conditions: ATCC21698, Mueller-Hinton broth, 37° C., 16-24 hours, read-out: ABMF minimal inhibitory conc, Coryn. Species
Text: as §1, §2

[2] = tested on: lymphocytic leukemia P388; assay: In vivo lymphocytic leukemia P388 test; design: species or system CD2 F1 mice; conditions: Mus musculus, P388, ip, intraperitoneal, once daily for five days, survival time treated/control, read-out: P388 in vivo T/C × 100
Description: Another test protocol is the in vivo lymphocytic leukemia P388 test. the animals used are either male or female CD2 F1 mice, six or seven animals per test group. The tumor transplant is by intraperitoneal injection of dilute ascitic fluid containing cells of lymphocytic leukemia P388. The test compounds are administered intraperitoneally once daily for five consecutive days at various doses following tumor inoculation. The animals are weighed and survivors are recorded on a regular basis for 30 days. A compound is designated "toxic" if, at a given dose, all animals die prior to four days after the first injection of drug. A ratio of survival time for treated (T)/control (C) animals is calculated. A criterion for efficacy is a ratio T/C times 100 greater than or equal to 125. See Cancer Chemotherapy Reports, Part 3, 3, 1 (1972) for a comprehensive discussion of the protocol.

Escherichia coli = assay: In vitro antibacterial (ABMF) microdilution test, Escherichia coli; format: cell-based; conditions: Mueller-Hinton broth, 37° C., 16-24 hours, read-out: ABMF minimal inhibitory conc, E. coli
Text: as §1, §2

Bacillus cereus = assay: In vitro antibacterial (ABMF) microdilution test, Bacillus cereus; format: cell-based; conditions: Mueller-Hinton broth, 37° C., 16-24 hours, read-out: ABMF minimal inhibitory conc, B. cer.
Text: as §1, §2

[3] = tested on: L1210 murine leukemia cell lines; assay: In vitro antitumor screening (PDC test), L1210 murine leukemia cell growth; format: cell-based; conditions: Mus musculus, 72 h; L1210 cells, 37° C., three days; value is ID50 multiplied by 10^7
Description: Another test protocol is the in vitro antitumor screening (PDC test) of compounds of the present invention on L1210 murine leukemia cell lines. L1210 cells, a murine leukemia cell line, were grown in RPMI 1640 supplemented with 5% fetal bovine serum and gentamicin (50 μg/ml).
Drug dilutions were prepared in the apropriate solvent and 20 μl of each dilution were added to 24-well Linbro tissue culture plats, followed by the addition of M 2.0 ml of cell suspension containing 3×10^4 cells per ml. Solvent and medium controls were included in each test. After incubation at 37° C. for three days in 5% CO2, the contents of each well were removed and the cells counted in a ZBI Coulter counter. Percent growth was calculated relative to the controls and the levels of drug activity wre expressed as ID50 in moles per liter using probit paper.

Branhamella catarrhalis = assay: In vitro antibacterial (ABMF) microdilution test, Branhamella catarrhalis; format: cell-based; conditions: Moraxella catarrhalis; Mueller-Hinton broth, 37° C., 16-24 hours; read-out: ABMF minimal inhibitory conc, B. cat.
Text: as §1, §2

HCT-8 cells = assay: In vitro proliferating human colon adenocarcinoma (HCA) cell screen, HCT-8 cells; format: cell-based; conditions: 60-65 hours at 37° C., value is ID50 multiplied by 10^7;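 also: ID50 is the molar concentration giving 50% growth inhibition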
Description: One test protocol is the in vitro proliferating human colon adenocarcinoma (HCA) cell screen. In this test, HCT-8 cells (HCA cell line received from Yale University) are trypsinized using trypsin-EDTA. A single cell suspension is achieved by passing the cells through a 26-gauge needle with a 20-cc syringe. A cell suspension is prepared using RPMI 1640+10% FCS+50 μg/ml gentamicin sulfate with a cell concentration of approximately 5,000 cells/ml. The cell suspension is dispensed in Linbro 24-well plates; 1 ml/well. The plates are incubated for approximately 48 hours at 37° C. in a 5% CO2 atmosphere. At this time test compounds are added in the appropriate concentration. Ten μl of the appropriate dilution is added to each well for a titration test. The plates are reincubated an additional 60-65 hours at 37° C. in a 5% CO2 atmosphere. The cells are lysed using a mix of cationic surfactant, glacial acetic acid and sodium chloride. Two ml of the lysed cell suspension from each well is added to 8 ml of diluent. The number of nuclei is determined using a Coulter counter (ZBI model), and a percent growth for each drug concentration is calculated.

Row | Structure (SMILES) | MIC (Streptococcus pneumoniae) [µg/mL] | MIC [1] [µg/mL] | response vs control in vivo at 1.56 mg/kg ([2]; 1.56 mg/kg) [%] | response vs control in vivo at 3.12 mg/kg ([2]; 3.12 mg/kg) [%] | response vs control in vivo at 6.25 mg/kg ([2]; 6.25 mg/kg) [%] | response vs control in vivo at 12.5 mg/kg [2] [%] | MIC (Escherichia coli) [µg/mL] | MIC (Bacillus cereus) [µg/mL] | IC50 [3] [nM] | MIC (Branhamella catarrhalis) [µg/mL] | response vs control in vivo at 25 mg/kg [2] [%] | response vs control in vivo at 50 mg/kg [2] [%] | IC50 (HCT-8 cells) [nM] | response vs control in vivo at 100 mg/kg [2] [%] | response vs control in vivo at 200 mg/kg [2] [%]
1 | CN(C)CCCNc1ccc([N+](=O)[O-])c2[nH]c3ccc(OC(=O)C(C)(C)C)cc3c(=O)c12 [Example 25, [8-[[3-(Dimethylamino)propyl]amino]-9,10-dihydro-5-nitro-9-oxo-2-acridinyl]-2,2-dimethylpropanoate, methanesulfonate (1:1), hemihydrate] | 333 | 333 | 156 | 173 | 214 | 248 | 111 | 111 | 15 | 333 |  |  |  |  | 
2 | CCN(CC)CCNc1ccc([N+](=O)[O-])c2[nH]c3ccccc3c(=O)c12.CS(=O)(=O)O [Example 1, 1-[[2-(Diethylamino)ethyl]amino]-4-nitro-9-(10H)-acridinone, methanesulfonate (1:1)] | < 0.46 | < 0.46 |  |  |  |  | 12.3 | 12.3 | 450 | < 0.46 | 145 | 172 |  |  | 
3 | CCN(CC)CCNc1ccc([N+](=O)[O-])c2[nH]c3ccc(OC)c(Cl)c3c(=O)c12 [Example 27, 1-Chloro-8-[[2-Diethylamino)ethyl]amino]-2-methoxy-5-nitro-9(10H)acridinone, methanesulfonate] | 1.4 | < 0.46 |  |  |  |  | 4.1 | 4.1 | 420 | 1.4 |  |  |  |  | 
4 | CCCCOc1ccc2[nH]c3c([N+](=O)[O-])ccc(NCCN(CC)CC)c3c(=O)c2c1.CS(=O)(=O)O [Example 6, 7-Butoxy-1-[[2-(diethylamino)ethyl]amino]-4-nitro-9-(10H)-acridinone, methanesulfonate] | > 1000 | > 1000 |  |  |  |  | > 1000 | > 1000 | 580 | > 1000 | 139 | 160 |  |  | 
5 | COc1ccc2c(c1)c(=O)c1c(NCCN(C)C)ccc([N+](=O)[O-])c1n2C [Example 33] |  |  |  |  |  |  |  |  | 1800 |  |  |  | 2270 | 137 | 144
6 | COc1ccc2[nH]c3c([N+](=O)[O-])ccc(NCC[N+](C)(C)[O-])c3c(=O)c2c1 [Example 14, 1-[[2-(Dimethylamino)ethyl]amino]-7-methoxy-4-nitro-9(10H)-acridinone, N^ω -oxide, 3-chlorobenzoate salt] | < 0.46 | 1.4 |  |  |  |  | 12.3 | 333 |  | 12.3 |  | 157 |  |  | 
7 | CN(C)CCNc1ccc([N+](=O)[O-])c2c1c(=O)c1ccccc1n2C.CS(=O)(=O)O [Example 32, 1-[[2-(Dimethylamino)ethyl]amino]-10-methyl-4-nitro-9(10H)-acridinone, methanesulfonate (1:1)] | 12.3 | 333 |  |  |  |  | 37 | > 1000 | 3200 | > 1000 |  | 126 |  | 146 | 
8 | CCCCOc1ccc2[nH]c3c([N+](=O)[O-])ccc(NCCN(C)C)c3c(=O)c2c1.CS(=O)(=O)O [Example 11, 7-Butoxy-1-[[2-(dimethylamino)ethyl]amino]-4-nitro-9(10H)-acridinone, methanesulfonate] | > 1000 | > 1000 |  |  |  |  | > 1000 | > 1000 | 1600 | > 1000 | 130 | 175 |  |  | 
9 | CCN(CC)CCNc1ccc([N+](=O)[O-])c2[nH]c3cccc(O)c3c(=O)c12.CS(=O)(=O)O [Example 29, 1-[[2-(Diethylamino)ethyl]amino]-8-hydroxy-4-nitro-9-(10H)-acridinone, methanesulfonate] | < 0.46 | < 0.46 |  |  |  |  | 1.4 | < 0.46 | 88 | < 0.46 |  |  |  |  | 
10 | CCN(CC)CCNc1ccc([N+](=O)[O-])c2c1c(=O)c1cc(OC)ccc1n2C.CS(=O)(=O)O [Example 31, 1-[[2-(Diethylamino)ethyl]amino]-7-methoxy-10-methyl-4-nitro-9(10H)-acridinone, methanesulfonate (1:1)] | > 1000 | 1000 |  |  |  |  | > 1000 | > 1000 |  | > 1000 |  |  |  | 128 | 128
11 | CCN(CC)CCNc1ccc([N+](=O)[O-])c2c1c(=O)c1ccccc1n2C [Example 30, 1-[[2-(Diethylamino)ethyl]amino]-10-methyl-4-nitro-9(10H)-acridinone, methanesulfonate (1:1), hydrate (1:1)] | 37 | 111 |  |  |  |  | 111 | 111 |  | 111 |  |  |  |  | 147
12 | CCN(CC)CCNc1ccc([N+](=O)[O-])c2[nH]c3cc(O)ccc3c(=O)c12.CS(=O)(=O)O [Example 28, 1-[[2-(Diethylamino)ethyl]amino]-6-hydroxy-4-nitro-9(10H)acridinone, methanesulfonate (1:1)] | < 0.46 | < 0.46 |  |  |  |  | 1.4 | 1.4 | 360 | < 0.46 |  |  |  |  | 
13 | CCCOc1ccc2[nH]c3c([N+](=O)[O-])ccc(NCCN(CC)CC)c3c(=O)c2c1.CS(=O)(=O)O [Example 5, 1-[[2-(Diethylamino)ethyl]amino]-4-nitro-7-propoxy-9(10H)-acridinone, methanesulfonate] | 1000 | 0.46 |  |  |  | 122 | > 1000 | > 1000 |  | > 1000 | 136 | 146 | 1950 | 164 | 186
